The record followed here is PMC5091913, “Identification and Validation of Small-Gatekeeper Kinases as Drug Targets in Giardia lamblia” (PLoS Neglected Tropical Diseases, 2016).

Where two headings read alike, the source gives them in different places.

In one assay the target is T1, Gl50803_16034 (Giardia duodenalis, UniProt A8BHW1).
T1 construct: gene GL50803_0016034
T1 sequence (A8BHW1 1-432): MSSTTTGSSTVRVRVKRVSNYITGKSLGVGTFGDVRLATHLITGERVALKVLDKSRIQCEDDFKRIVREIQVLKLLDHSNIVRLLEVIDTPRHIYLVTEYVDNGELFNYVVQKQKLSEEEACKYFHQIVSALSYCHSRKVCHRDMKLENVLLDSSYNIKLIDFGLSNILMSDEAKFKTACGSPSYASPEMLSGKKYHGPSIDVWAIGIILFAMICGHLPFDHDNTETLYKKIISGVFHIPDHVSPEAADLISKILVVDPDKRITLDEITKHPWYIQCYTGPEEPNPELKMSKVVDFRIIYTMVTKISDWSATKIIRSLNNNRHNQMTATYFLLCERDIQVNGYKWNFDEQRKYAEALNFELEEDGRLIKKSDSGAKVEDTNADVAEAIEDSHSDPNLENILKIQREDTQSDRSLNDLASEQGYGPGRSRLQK
The assay is described as follows: thermal shift assay. In kind it is binding.

The target of another assay is T2, Gl50803_8445 (Giardia duodenalis, UniProt A8BXP9).
T2 construct: gene GL50803_008445
T2 sequence (A8BXP9 1-597): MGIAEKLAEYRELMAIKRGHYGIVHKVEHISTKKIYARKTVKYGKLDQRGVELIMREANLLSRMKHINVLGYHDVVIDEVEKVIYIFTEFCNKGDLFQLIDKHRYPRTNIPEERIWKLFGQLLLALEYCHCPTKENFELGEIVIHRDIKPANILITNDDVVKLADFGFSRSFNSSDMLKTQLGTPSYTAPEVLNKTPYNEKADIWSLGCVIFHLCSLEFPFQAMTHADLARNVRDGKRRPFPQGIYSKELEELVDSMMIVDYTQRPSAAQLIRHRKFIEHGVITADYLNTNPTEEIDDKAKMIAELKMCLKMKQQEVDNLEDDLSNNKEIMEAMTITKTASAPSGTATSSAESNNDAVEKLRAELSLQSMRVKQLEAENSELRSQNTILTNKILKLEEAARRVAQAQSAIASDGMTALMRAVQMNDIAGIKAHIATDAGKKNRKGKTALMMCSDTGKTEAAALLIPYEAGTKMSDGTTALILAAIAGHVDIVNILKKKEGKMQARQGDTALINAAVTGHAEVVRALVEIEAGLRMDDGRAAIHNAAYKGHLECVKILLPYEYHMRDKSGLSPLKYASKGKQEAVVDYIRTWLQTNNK
Nature of the assay: thermal shift assay. The conditions noted are these: also printed as 2°–3°. In kind it is binding.

For `Nc1ncnc2c1c(-c1ccc3nc(-c4ccccc4)oc3c1)nn2CC1CCNCC1` [compound 1264, 1264], the ΔTm at Gl50803_16034 was determined as 6.5 °.

In the case of `Nc1ncnc2c1c(-c1ccc(-c3ccccc3)cc1)nn2CC1CCNCC1` [compound 1244, 1244], on Gl50803_16034, the ΔTm was 5.2 °.

As to `CCOc1ccc2cc(-c3nc(C(C)(C)C)n4ccnc(N)c34)ccc2c1` [compound 1213, 1213], the ΔTm at Gl50803_16034 (also printed as 2°–3°) and on Gl50803_8445 was ~ 3 ° throughout.
